The test system of test [1] is Mus musculus. The test is described as follows: Anticonvulsant activity in maximal electroshock induced seizure mouse model assessed as reduction in convulsions at 25 mg/kg, po. The format is functional, organism-based. A general note: Protection in the maximal electroshock model is a classic sign of anticonvulsant action.
Test [2] relates to Mus musculus. The test is described as follows: Anticonvulsant activity in maximal electroshock induced seizure mouse model assessed as reduction in convulsions at 100 mg/kg, po. The format is functional, organism-based.
Test [3] deals with Mus musculus. The test is described as follows: Anticonvulsant activity in subcutaneous pentylenetetrazole-induced seizure mouse model assessed as reduction in convulsions at 100 mg/kg, po. The format is functional, organism-based.
Test [4] concerns Mus musculus. The test is described as follows: Anticonvulsant activity in maximal electroshock induced seizure mouse model assessed as reduction in convulsions at 50 mg/kg, po. The format is functional, organism-based.
The test system of test [5] is Mus musculus. The test is described as follows: Anticonvulsant activity in subcutaneous pentylenetetrazole-induced seizure mouse model assessed as reduction in convulsions at 50 mg/kg, po. The format is functional, organism-based.
Test [6] has as its system Rattus norvegicus. The test is described as follows: Anticonvulsant activity in amygdala kindling rat model assessed as change in after discharge duration at 30 mg/kg, po (reference value: -5.5%). The format is functional.
In test [7] the test system is Rattus norvegicus. The test is described as follows: Anticonvulsant activity in amygdala kindling rat model assessed as change in after discharge duration at 100 mg/kg, po (reference value: -5.5%). The format is functional.
Test [8] deals with Rattus norvegicus. Briefly: Anticonvulsant activity in amygdala kindling rat model assessed as change in after discharge threshold at 30 mg/kg, po relative to control. The format is functional.
In test [9] the test system is Rattus norvegicus. The test is described as follows: Anticonvulsant activity in amygdala kindling rat model assessed as change in after discharge threshold at 100 mg/kg, po relative to control. The format is functional.
The subject of test [10] is Mus musculus. The test is described as follows: Anticonvulsant activity in po dosed subcutaneous pentylenetetrazole-induced seizure mouse model assessed as reduction in convulsions. The format is functional.
For test [11], the system named is Mus musculus. The test is described as follows: Anticonvulsant activity in po dosed maximal electroshock induced seizure mouse model assessed as reduction in convulsions. The format is functional.
Test [12] relates to Mus musculus. The test is described as follows: Anticonvulsant activity in ip dosed subcutaneous pentylenetetrazole-induced seizure mouse model assessed no observable episode of clonic seizure. The format is functional.
Test [13] concerns Mus musculus. The test is described as follows: Anticonvulsant activity in ip dosed maximal electroshock induced seizure mouse model assessed as suppression in hindlimb tonic extension. The format is functional.
In test [14] the test system is Mus musculus. Briefly: Anticonvulsant activity in subcutaneous pentylenetetrazole-induced seizure mouse model assessed as reduction in convulsions at 25 mg/kg, po. The format is functional, organism-based.
Test [15] deals with Mus musculus. The test is described as follows: Neurotoxicity in po dosed mouse by rotarod test. The format is functional. On the technique in general: In the rotarod test animals must keep their balance on a rotating rod.
In test [16] the test system is Mus musculus. Briefly: Anticonvulsant activity in po dosed 6-Hz induced seizure mouse model. The format is functional.
The subject of test [17] is Rattus norvegicus. Briefly: Anticonvulsant activity in amygdala kindling rat model assessed as change in after discharge duration at 600 mg/kg, po (reference value: -5.5%). The format is functional.
Test [18] has as its system Rattus norvegicus. The test is described as follows: Anticonvulsant activity in amygdala kindling rat model assessed as change in after discharge duration at 300 mg/kg, po (reference value: -5.5%). The format is functional.
Test [19] relates to Rattus norvegicus. Briefly: Anticonvulsant activity in amygdala kindling rat model assessed as change in after discharge threshold at 300 mg/kg, po relative to control. The format is functional.
Test [20] deals with Rattus norvegicus. Briefly: Anticonvulsant activity in amygdala kindling rat model assessed as change in after discharge threshold at 600 mg/kg, po relative to control. The format is functional.
The subject of test [21] is Mus musculus. The test is described as follows: Therapeutic index, ratio of TD50 for neurotoxicity in po dosed mouse to ED50 for po dosed maximal electroshock induced seizure mouse model.
For test [22], the system named is Mus musculus. Briefly: Therapeutic index, ratio of TD50 for neurotoxicity in po dosed mouse to ED50 for po dosed 6-Hz induced seizure mouse model.

Activity calls are given as the source filed them.

Regarding `CNS(=O)(=O)c1ccccc1-c1cccc(Cl)c1`, the outcome in test [1] was inactive. For the same compound, the outcome in test [2] was Active.

In the case of `CN(C)S(=O)(=O)c1ccccc1-c1ccccn1`, in test [3], the result was inactive.

Regarding `CN(C)S(=O)(=O)c1ccccc1-c1cccnc1`, the outcome in [3] was inactive.

`CNS(=O)(=O)c1ccccc1-c1ccc(F)cc1`: in test [3], the outcome was inactive. The result in test [2] and in test [4] was Active.

`CNS(=O)(=O)c1ccccc1-c1cccc(F)c1`: the outcome in test [1] was inactive. Further, the outcome in [2] was Active.

For the compound `CNS(=O)(=O)c1ccccc1-c1ccccc1`, the outcome in test [5] was inactive. Further, the result in [2] and in test [4] was Active.

With `CNS(=O)(=O)c1ccccc1-c1ccccc1OC`, the outcome in test [3] and in test [2] was inactive.

With `CN(C)S(=O)(=O)c1ccccc1-c1ccoc1`, the outcome in test [2] was inactive.

In general, ED50 refers to the dose at which the effect has come halfway, by size or by number of responders. For `NS(=O)(=O)Cc1noc2ccccc12` [ZONISAMIDE], the Activity is listed as 7% in test [6], -37.6% in [7], 5.1% in [8] and 45.9% in test [9]. The ED50 was above 500 mg/kg in test [10] and 20 mg/kg in [11].

`CNS(=O)(=O)c1ccccc1-c1cccc(OC)c1`: in test [2], the outcome was inactive.

With `CN(C)S(=O)(=O)c1ccccc1-c1ccncc1`, in [2], the outcome was inactive.

In the case of `CN(C)S(=O)(=O)c1ccccc1-c1ccco1`, the result in test [2] was inactive.

In the case of `CC1(C)O[C@@H]2[C@@H](CO[C@@]3(COS(N)(=O)=O)OC(C)(C)O[C@@H]23)O1` [TOPIRAMATE], the results for the 50% effective dose (ED50) in [12] and in test [13] were above 800 mg/kg and 33 mg/kg, respectively.

Turning to `CNS(=O)(=O)c1ccccc1-c1ccc(OC)cc1`, the result in test [3] and in [2] was inactive.

For the compound `CN(C)S(=O)(=O)c1cccc(Cl)c1`, the outcome in test [4] was Active.

For `CNS(=O)(=O)c1ccccc1-c1ccccc1Cl`, the outcome in [2] and in test [4] was Active.

For the compound `CCNS(=O)(=O)c1ccccc1-c1ccccc1`, the outcome in [14] and in test [1] was inactive. Also, the result in test [2] and in test [4] was Active.

`CN(C)S(=O)(=O)c1ccccc1-c1ccccc1`: the result in test [5] and in [4] was inactive.

With `O=S(=O)(c1ccccc1-c1ccccc1)C(F)(F)F`, the result in test [3] and in test [2] was inactive.

Turning to `CNS(=O)(=O)c1ccccc1-c1ccc(Cl)cc1`, in test [1], the outcome was inactive. In test [2], the result was Active.

For orientation: TD50 means the 50% point of the dose-response relation for the toxic effect studied. A higher TD50 goes with harm only at a large dose. As to `CCCC(CCC)C(=O)[O-].[Na+]` [VALPROATE SODIUM], in test [15], the TD50 amounted to 396 mg/kg. The results for the ED50 in [16] and in [11] were 394 mg/kg and 337 mg/kg, respectively. Besides, the Activity in test [17] was -22.5%; in test [18], 11.1%; in [19], -5.4%; in [20], 81.3%.

For the compound `CCS(=O)(=O)c1ccccc1-c1ccccc1`, the outcome in test [3] was Active. Further, the outcome in test [2] was inactive.

For `CS(=O)(=O)c1ccccc1-c1ccccc1F`, the outcome in test [2] was Active.

`NS(=O)(=O)c1ccccc1-c1ccccc1`: the result in test [2] and in [4] was Active.

As to `CNS(=O)(=O)c1ccccc1-c1ccccc1F`, the “Ratio TD50/ED50” value is listed as 6.7 in [21] and 2 in test [22]. Besides, the TD50 in [15] stood at 107 mg/kg. Also, the ED50 in test [16] was 53 mg/kg; in [11] it was 16 mg/kg. In addition, the Activity is reported as -1.4% in test [7] and 352.5% in [9]. Also, the outcome in [5], in [1], in test [3], in test [2] and in test [4] was Active.

With `CCCNS(=O)(=O)c1ccccc1-c1ccccc1`, in test [2], the result was Active.

`CN(C)S(=O)(=O)c1ccccc1-c1cccs1`: the result in test [3] and in test [2] was inactive.

Values taken from ChEMBL document CHEMBL4052797, “N-alkyl-[1,1'-biphenyl]-2-sulfonamide derivatives as novel broad spectrum anti-epileptic drugs with efficacy equivalent to that of sodium valproate” (2017).
